Data from patent US8076358B2, “6-substituted-thio-2-amino-quinoline derivatives useful as inhibitors of β-secretase (BACE)” (Janssen Pharmaceutica NV, priority 2008, dated 2011).

Molecular target: human BACE-1 (Homo sapiens, UniProt P56817)
Assay: In Vitro BACE Assay (CEREP, fluorogenic substrate)
Assay type: biochemical
Settings: recombinant enzyme; for inhibition at 10 µM: 10 μM test compound, pH 4.5; for IC50: pH 4.5, 60 min at 37° C.
Method: This assay was run by CEREP (Catalog Ref. 761-B, Referred to SOP No. 1C131; ERMOLIEFF, J., LOY, J. A., KOELSCH, G. and TANG, J., Proteolytic activation of recombinant pro-memapsin 2 (pro-BACE) studied with new fluorogenic substrates, Biochemistry, (2000) Vol. 39, p. 12450).
More specifically the assay, run at 50 μL in a 96 well plate, evaluated the effect of test compound on the activity of the human BACE-1 quantified by measuring the formation of Mca-S-E-V-N-L-NH2 from Mca-S-E-V-N-L-D-A-E-F-R-K(Dnp)-R-R—NH2, using a recombinant enzyme.
The test compound, reference compound or water (control) was added to a buffer containing 0.09 M sodium acetate (pH 4.5) and 0.25 μg BACE-1. Compound interference with the fluorimetric detection method due to autofluorescence was then checked by measurements at the wavelengths defined to evaluate the enzyme activity. Thereafter, the reaction was initiated by adding 7.5 μM of the substrate Mca-S-E-V-N-L-D-A-E-F-R-K(Dnp)-R—R—NH2 and the mixture was incubated for 60 min at 37° C. For control basal measurement, the substrate was omitted from the reaction mixture. Immediately after the incubation, the fluorescence intensity emitted by the reaction product Mca-S-E-V-N-L-NH2 was measured at λex=320 nm and λem=405 nm using a microplate reader (Ultra, Tecan). The standard inhibitory reference compound was OM99-2, which was tested in each experiment at several concentrations to obtain an inhibition curve from which its IC50 value was calculated.

Chain of human BACE-1 (P56817 46-501): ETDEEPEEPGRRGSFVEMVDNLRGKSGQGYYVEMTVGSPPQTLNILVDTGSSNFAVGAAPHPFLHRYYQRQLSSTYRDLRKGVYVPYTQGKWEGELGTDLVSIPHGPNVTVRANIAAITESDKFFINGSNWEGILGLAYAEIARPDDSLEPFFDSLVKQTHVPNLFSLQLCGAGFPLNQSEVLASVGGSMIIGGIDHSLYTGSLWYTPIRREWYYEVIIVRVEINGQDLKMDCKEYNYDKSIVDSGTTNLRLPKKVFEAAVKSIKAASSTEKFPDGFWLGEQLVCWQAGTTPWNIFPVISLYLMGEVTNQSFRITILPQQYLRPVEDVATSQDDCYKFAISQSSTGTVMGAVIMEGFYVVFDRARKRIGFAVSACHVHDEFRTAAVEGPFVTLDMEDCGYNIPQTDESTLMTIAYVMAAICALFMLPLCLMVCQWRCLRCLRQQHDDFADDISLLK

SMILES | inhibition at 10 µM | IC50
Cc1cc(C)c(CNCc2cccc(Sc3ccc4nc(N)c(CC5CCOCC5)cc4c3)c2)c(C)c1 [Compound 1, 3-(Tetrahydro-pyran-4-ylmethyl)-6-{3-[(2,4,6-trimethyl-benzylamino)-methyl]-phenylsulfanyl}-quinolin-2-ylamine] | 96% | 260 nM
Cc1cc(C)c(NCc2cccc(Sc3ccc4nc(N)c(CC5CCOCC5)cc4c3)c2)c(C)c1 [Compound 2] | 94% | 920 nM
Nc1nc2ccc(Sc3cccc(CNCc4c(F)cccc4F)c3)cc2cc1CC1CCOCC1 [Compound 4] | 97% | 400 nM
Nc1nc2ccc(Sc3cccc(CNCc4ccccn4)c3)cc2cc1CC1CCOCC1 [Compound 5] | 93% | 800 nM
Cc1ccc(CNCc2cccc(Sc3ccc4nc(N)c(CC5CCOCC5)cc4c3)c2)c(C)c1 [Compound 6] | 98% | 450 nM
COc1ccc(CNCc2cccc(Sc3ccc4nc(N)c(CC5CCOCC5)cc4c3)c2)c(OC)c1 [Compound 7] | 90% | 380 nM
Nc1nc2ccc(Sc3cccc(CNCc4cc(F)ccc4F)c3)cc2cc1CC1CCOCC1 [Compound 8] | 95% | 210 nM
Nc1nc2ccc(Sc3cccc(CNCc4ccc(Cl)cc4Cl)c3)cc2cc1CC1CCOCC1 [Compound 9] | 98% | 240 nM
CCOc1ccccc1CNCc1cccc(Sc2ccc3nc(N)c(CC4CCOCC4)cc3c2)c1 [Compound 10] | 95% | 300 nM
Nc1nc2ccc(Sc3cccc(CNCc4ccc(C(F)(F)F)cc4)c3)cc2cc1CC1CCOCC1 [Compound 12] | 90% | 460 nM
CCCC(NCc1cccc(Sc2ccc3nc(N)c(CC4CCOCC4)cc3c2)c1)C(=O)O (stereo not drawn) [Compound 13] | 63% | 2800 nM
Cc1ccc(C)c(COCc2cccc(Sc3ccc4nc(N)c(CC5CCOCC5)cc4c3)c2)c1 [Compound 16] | 93% | 1200 nM
Nc1nc2ccc(Sc3cccc(CSc4cccc(CC(=O)O)c4)c3)cc2cc1CC1CCOCC1 [Compound 17] | 94% | 330 nM
CCOc1ccccc1CNCc1cccc(Sc2cc3cc(CC4CCOCC4)c(N)nc3cc2F)c1 [Compound 18, 6-{3-[(2-Ethoxy-benzylamino)-methyl]-phenylsulfanyl}-7-fluoro-3-(tetrahydro-pyran-4-ylmethyl)-quinolin-2-ylamine] | 95% | 260 nM
CCOc1ccccc1CNCCc1cccc(Sc2ccc3nc(N)c(CC4CCOCC4)cc3c2)c1 [Compound 20] | 98% | 140 nM
Nc1nc2ccc(Sc3cccc(CCNCc4ccccn4)c3)cc2cc1CC1CCOCC1 [Compound 21] | 91% | 630 nM
Cc1cc(C)c(CNCc2cccc(Oc3ccc4nc(N)c(CC5CCOCC5)cc4c3)c2)c(C)c1 [Compound (II-a), 3-(Tetrahydro-pyran-4-ylmethyl)-6-{3-[(2,4,6-trimethylbenzylamino)-methyl]-phenoxy}-quinolin-2-ylamine] | 98% | 1200 nM
Cc1cc(C)c(CNCc2cccc(Oc3ccc4nc(N)c(CCC5CCOCC5)cc4c3)c2)c(C)c1 [Compound (II-b), 3-[2-(Tetrahydro-pyran-4-yl)-ethyl]-6-{3-[(2,4,6-trimethylbenzylamino)-methyl]-phenoxy}-quinolin-2-ylamine] | 74% | > 10000 nM
